Measured values from publication PMC10999543, “Identification of kinase modulators as host-directed therapeutics against intracellular methicillin-resistant Staphylococcus aureus” (Frontiers in Cellular and Infection Microbiology, 2024).
Where two headings read alike, the source gives them in different places.

Key:
intracellular MRSA = type: cell-based, Staphylococcus aureus; conditions: for %GFP+ rep 1 / z-scoreMRSA+ rep 1: replicate 1; for %GFP+ rep 2 / z-scoreMRSA+ rep 2: replicate 2; for %GFP+ rep 3 / z-scoreMRSA+ rep 3: replicate 3; for z-scoreMRSA+ mean: mean of 3 replicates
In short: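 HeLa cells infected with GFP-MRSA (MOI ~6.8), gentamicin-cleared, then incubated overnight at 37°C with inhibitors plus 5 µg/ml gentamicin; DMSO as negative control, triplicates. Flow cytometry gave % GFP-positive cells and cell count (viability surrogate); hits by plate z-score (MRSA ≤ -2, HeLa count ≥ -3).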

HeLa cells = experiment: Compound screen by flow cytometry: HeLa cell count as surrogate readout of cell viability (z-scoreHeLa); type: cell-based, human; conditions: for cell count rep 1 / z-scoreHeLa rep 1: replicate 1; for cell count rep 2 / z-scoreHeLa rep 2: replicate 2; for cell count rep 3 / z-scoreHeLa rep 3: replicate 3; for z-scoreHeLa mean: mean of 3 replicates
In short: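 HeLa cells were infected with GFP-MRSA (mean MOI 6.8 ± 4.6) for 1 h, and extracellular bacteria were killed with 30 µg/ml gentamicin. Cells were then incubated overnight with kinase inhibitors in 5 µg/ml gentamicin, in triplicate against DMSO controls. Flow-cytometric cell count served as a viability surrogate, expressed as a plate z-score.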

[1] = PKIS compound screen raw data, MRSA-infected HeLa cells
[2] = Yes/No: effect without cell death
[3] = compound screen, MRSA-infected HeLa cells
[4] = PKIS compound screen raw data, HeLa cell count
[5] = compound screen, HeLa cell count
[6] = PKIS compounds raw data, MRSA-infected HeLa cells
[7] = PKIS compounds raw data, HeLa cell count
[8] = PKIS compound screen, Yes/No call
[9] = PKIS compound screen, Yes/No call (effect without cell death)
[10] = PKIS compound screen, MRSA-infected HeLa cells
[11] = PKIS compound screen, HeLa cell count

| SMILES | %GFP+ rep 1 (intracellular MRSA; [1]) | %GFP+ rep 2 (intracellular MRSA; [1]) | %GFP+ rep 3 (intracellular MRSA; [1]) | effect (intracellular MRSA; Yes/No call from z-scoreMRSA+) | hit (intracellular MRSA; [2]) | z-scoreMRSA+ mean (intracellular MRSA; [3]) | z-scoreMRSA+ rep 1 (intracellular MRSA; [3]) | z-scoreMRSA+ rep 2 (intracellular MRSA; [3]) | z-scoreMRSA+ rep 3 (intracellular MRSA; [3]) | cell count rep 1 (HeLa cells; [4]) | cell count rep 2 (HeLa cells; [4]) | cell count rep 3 (HeLa cells; [4]) | cell death (HeLa cells; Yes/No call from z-scoreHeLa) | z-scoreHeLa mean (HeLa cells; [5]) | z-scoreHeLa rep 1 (HeLa cells; [5]) | z-scoreHeLa rep 2 (HeLa cells; [5]) | z-scoreHeLa rep 3 (HeLa cells; [5]) | %GFP+ rep 1 (intracellular MRSA; [6]) | %GFP+ rep 2 (intracellular MRSA; [6]) | %GFP+ rep 3 (intracellular MRSA; [6]) | other results |
| --- | --- | --- | --- | --- | --- | --- | --- | --- | --- | --- | --- | --- | --- | --- | --- | --- | --- | --- | --- | --- | --- |
| c1ccc(-c2n[nH]cc2-c2ccnc(-c3ccc(CNC4CCOCC4)cc3)c2)nc1 [GW709213X] | 20.2% | 23.4% | 24.6% | No | No | 0.80 | 0.38 | 1.09 | 0.92 | 27129 | 33773 | 22823 | No | 0.57 | -0.52 | 1.46 | 0.76 |  |  |  |  |
| CS(=O)(=O)Nc1ccc(N/C=C2\C(=O)Nc3ccccc32)cc1 [GW278681X] |  |  |  | No | No | -0.46 | -0.41 | 0.07 | -1.03 |  |  |  | No | -0.10 | -0.47 | 0.34 | -0.16 | 11.9% | 13.7% | 12.4% | cell count rep 1 (HeLa cells; [7]): 4258; cell count rep 2 (HeLa cells; [7]): 4720; cell count rep 3 (HeLa cells; [7]): 6630 |
| c1ccc(COc2ccc(Nc3ncnc4ccc(-c5ccco5)cc34)cc2)cc1 [GW284372X] |  |  |  |  |  |  |  |  |  |  |  |  |  |  |  |  |  | 11.1% | 12.1% | 12.2% | effect (intracellular MRSA; [8]): No; hit (intracellular MRSA; [9]): No; z-scoreMRSA+ mean (intracellular MRSA; PKIS compound screen): -0.74; z-scoreMRSA+ rep 1 (intracellular MRSA; PKIS compound screen): -0.66; z-scoreMRSA+ rep 2 (intracellular MRSA; PKIS compound screen): -0.47; z-scoreMRSA+ rep 3 (intracellular MRSA; PKIS compound screen): -1.09; cell death (HeLa cells; [8]): No; z-scoreHeLa mean (HeLa cells; PKIS compound screen): 0.48; z-scoreHeLa rep 1 (HeLa cells; PKIS compound screen): -0.33; z-scoreHeLa rep 2 (HeLa cells; PKIS compound screen): 0.65; z-scoreHeLa rep 3 (HeLa cells; PKIS compound screen): 1.13; cell count rep 1 (HeLa cells; [7]): 4410; cell count rep 2 (HeLa cells; [7]): 5123; cell count rep 3 (HeLa cells; [7]): 9333 |
| CCn1c(-c2nonc2N)nc2c(C#CC(C)(C)O)nc(OC[C@@H](N)c3ccccc3)cc21 [GSK938890A] | 12.8% | 14.8% | 15.1% |  |  |  |  |  |  | 14299 | 35410 | 42196 |  |  |  |  |  |  |  |  | z-scoreMRSA+ mean (intracellular MRSA; [10]): -1.38; z-scoreMRSA+ rep 1 (intracellular MRSA; [10]): -1.60; z-scoreMRSA+ rep 2 (intracellular MRSA; [10]): -1.12; z-scoreMRSA+ rep 3 (intracellular MRSA; [10]): -1.43; hit (intracellular MRSA; [9]): No; effect (intracellular MRSA; PKIS compound screen, Yes/No call on z-scoreMRSA+): No; z-scoreHeLa mean (HeLa cells; [11]): -0.17; z-scoreHeLa rep 1 (HeLa cells; [11]): -0.88; z-scoreHeLa rep 2 (HeLa cells; [11]): 0.12; z-scoreHeLa rep 3 (HeLa cells; [11]): 0.27; cell death (HeLa cells; PKIS compound screen, Yes/No call on z-scoreHeLa): No |
